From US10774051B2, “6-membered heterocyclic derivatives and pharmaceutical composition comprising the same” (Shionogi & Co., Ltd., priority 2015, dated 2020)

Target: human P2X7 receptor (Homo sapiens, UniProt Q99572, R270H/Y155H)
Assay: Evaluation of human P2X7 receptor inhibitory activity (Yo-Pro uptake, BzATP stimulation, FLIPR TETRA)
Type: cell-based
Details: 1321N1 cells stably expressing human P2X7 receptor; BzATP stimulation, Yo-Pro uptake; read-out: IC50 (antagonistic activity for the human P2X7 receptor)
How it was run: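 1321N1 cells stably expressing human P2X7 (T606C/G952A SNP variant), in HBSS buffer pH 7.4-7.5 with Yo-Pro, stimulated with BzATP; compound added 8 min after agonist. Fluorescence followed for 20 min on FLIPR; max-minus-min change gave % inhibition, IC50 by logistic fit.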

Structure (SMILES)	IC50 [nM]
COc1cn(Cc2ccc(F)c(Cl)c2)c(N[C@@H]2CCc3ccccc32)nc1=O [Compound I-0335]	170
COc1cn(Cc2ccc(F)c(Cl)c2)c(N[C@@H]2CCCc3ccccc32)nc1=O [Compound I-0336]	120
COc1cn(Cc2cc(F)c(F)cc2F)c(Nc2cccc(Cl)c2C)nc1=O [Compound I-0347]	20
COc1cn(Cc2ccc(F)c(Cl)c2)c(Nc2cc(C)c(C)cc2C)nc1=O [Compound I-0358]	160
Cc1cc2c(cc1Nc1nc(=O)c(F)cn1Cc1ccccc1)OCCO2 [Compound I-0366]	35
Cc1cc2c(cc1Nc1nc(=O)c(F)cn1Cc1ccc(F)cc1)OCCO2 [Compound I-0367]	13
Cc1cc2c(cc1Nc1nc(=O)c(Cl)cn1Cc1ccccc1)OCCO2 [Compound I-0370]	47
COc1cn(Cc2ccccc2)c(Nc2ccccc2SC)nc1=O [Compound I-0382]	350
CCOc1cc(C)c(Nc2nc(=O)c(OC)cn2Cc2cc(F)cc(Cl)c2)cc1C [Compound I-0384]	10
COc1cn(Cc2ccc(F)c(Cl)c2)c(Nc2cccc3[nH]c(=O)ccc23)nc1=O [Compound I-0397]	67
COc1cc(C)cc(Nc2nc(=O)c(OC)cn2Cc2cccc(F)c2)c1C [Compound I-0405]	2
COc1ccc(C)c(Nc2nc(=O)c(OC)cn2Cc2ccc(F)c(F)c2)c1 [Compound I-0407]	6

Same assay, conditions: 1321N1 cells stably expressing human P2X7 receptor; BzATP stimulation, Yo-Pro uptake; read-out: IC50 (antagonistic activity for the human P2X7 receptor), class symbol

Structure (SMILES)	IC50 [nM]
COc1cn(Cc2ccc(F)cc2)c(Nc2cc(C)ccc2C)nc1=O [Compound I-0332]	10 to 100
COc1cn(Cc2cccc(Cl)c2)c(Nc2cc(C)ccc2C)nc1=O [Compound I-0333]	10 to 100
COc1cn(Cc2ccc(F)c(Cl)c2)c(Nc2cc(C)ccc2C)nc1=O [Compound I-0334]	< 10
Cc1c(Cl)cccc1Nc1nc(=O)c(CC(=O)NCCO)cn1Cc1ccccc1 [Compound I-0337]	100 to 500
Cc1c(Cl)cccc1Nc1nc(=O)c(CC(=O)NC2CCOCC2)cn1Cc1ccccc1 [Compound I-0338]	100 to 500
Cc1c(Cl)cccc1Nc1nc(=O)c(CC(=O)N2CCOCC2)cn1Cc1ccccc1 [Compound I-0339]	100 to 500
COCCNC(=O)Cc1cn(Cc2ccccc2)c(Nc2cccc(Cl)c2C)nc1=O [Compound I-0340]	100 to 500
Cc1c(Cl)cccc1Nc1nc(=O)c(CC(=O)NCc2ccccc2)cn1Cc1ccccc1 [Compound I-0341]	100 to 500
Cc1c(Cl)cccc1Nc1nc(=O)c(CC(=O)NC2COC2)cn1Cc1ccccc1 [Compound I-0342]	100 to 500
Cc1c(Cl)cccc1Nc1nc(=O)c(CC(=O)NCC#N)cn1Cc1ccccc1 [Compound I-0344]	100 to 500
COc1cc(C)c(Nc2nc(=O)c(Cl)cn2Cc2ccc(F)c(Cl)c2)cc1OC [Compound I-0345]	< 10
COc1cc(C)c(Nc2nc(=O)c(Cl)cn2Cc2cccc(Cl)c2)cc1OC [Compound I-0346]	< 10
COc1cc(C)c(Nc2nc(=O)c(F)cn2Cc2cccc(Cl)c2)cc1C [Compound I-0348]	< 10
COc1cc(C)c(Nc2nc(=O)c(F)cn2Cc2ccc(F)c(Cl)c2)cc1C [Compound I-0349]	< 10
CCc1cc(OC)c(OC)cc1Nc1nc(=O)c(F)cn1Cc1cccc(Cl)c1 [Compound I-0350]	< 10
CCc1cc(OC)c(OC)cc1Nc1nc(=O)c(Cl)cn1Cc1ccccc1 [Compound I-0351]	< 10
COCc1cccc(Nc2nc(=O)c(OC)cn2Cc2ccccc2)c1C [Compound I-0352]	100 to 500
COCc1cccc(Nc2nc(=O)c(OC)cn2Cc2ccc(F)c(Cl)c2)c1C [Compound I-0353]	10 to 100
COc1cn(Cc2cc(F)cc(F)c2)c(Nc2cc(C)c(OC(F)F)cc2C)nc1=O [Compound I-0355]	< 10
COCc1ccccc1Nc1nc(=O)c(OC)cn1Cc1ccc(F)c(Cl)c1 [Compound I-0356]	100 to 500
COc1cn(Cc2ccccc2)c(Nc2cc(C)c(C)cc2C)nc1=O [Compound I-0357]	500 to 1000
COc1cn(Cc2ccccc2)c(Nc2cc(F)c(F)cc2C)nc1=O [Compound I-0359]	500 to 1000
COc1cn(Cc2ccc(F)c(Cl)c2)c(Nc2cc(F)c(F)cc2C)nc1=O [Compound I-0360]	10 to 100

Structure (SMILES)	IC50 [nM]
CCc1c(Nc2nc(=O)c(OC)cn2Cc2ccccc2)cc(OC)cc1OC [Compound I-0361]	< 10
CCc1c(Nc2nc(=O)c(OC)cn2Cc2cccc(Cl)c2)cc(OC)cc1OC [Compound I-0362]	< 10
CCc1c(Nc2nc(=O)c(OC)cn2Cc2ccc(F)c(Cl)c2)cc(OC)cc1OC [Compound I-0363]	< 10
COc1cn(Cc2ccccc2)c(Nc2ccc(OC(F)F)cc2C)nc1=O [Compound I-0364]	100 to 500
Cc1cc2c(cc1Nc1nc(=O)c(F)cn1Cc1cccc(Cl)c1)OCCO2 [Compound I-0368]	10 to 100
Cc1cc2c(cc1Nc1nc(=O)c(F)cn1Cc1ccc(F)c(Cl)c1)OCCO2 [Compound I-0369]	< 10
COc1cc(C)cc(Nc2nc(=O)c(OC)cn2Cc2cc(F)cc(F)c2)c1C [Compound I-0371]	< 10
COc1cn(Cc2cccc(Cl)c2)c(Nc2ccc(C)cc2C)nc1=O [Compound I-0374]	10 to 100
COc1cn(Cc2ccc(F)cc2)c(Nc2ccc(C)cc2C)nc1=O [Compound I-0375]	10 to 100
COc1cn(Cc2ccc(F)c(Cl)c2)c(Nc2ccc(C)cc2C)nc1=O [Compound I-0376]	< 10
COc1cn(Cc2cc(F)cc(F)c2)c(Nc2cc(C)c(C)cc2C)nc1=O [Compound I-0377]	< 10
COc1cn(Cc2cc(F)cc(F)c2)c(Nc2cc(C)c(Cl)cc2C)nc1=O [Compound I-0378]	< 10
COc1cn(Cc2ccc(F)c(Cl)c2)c(Nc2cc(-c3nnco3)ccc2C)nc1=O [Compound I-0379]	< 10
Cc1ccc(-c2nnco2)cc1Nc1nc(=O)c(F)cn1Cc1ccc(F)c(F)c1 [Compound I-0380]	10 to 100
COc1cn(Cc2cc(F)cc(Cl)c2)c(Nc2cc(C)c(C)cc2C)nc1=O [Compound I-0381]	< 10
CCOc1cc(C)c(Nc2nc(=O)c(OC)cn2Cc2cc(F)cc(F)c2)cc1C [Compound I-0383]	< 10
COc1cn(Cc2cc(F)cc(Cl)c2)c(Nc2cc(C)c(Cl)cc2C)nc1=O [Compound I-0385]	10 to 100
COc1cn(Cc2ccccc2)c(Nc2cc(Br)ccc2C)nc1=O [Compound I-0386]	10 to 100
CCc1ccc(Cl)cc1Nc1nc(=O)c(OC)cn1Cc1cccc(Cl)c1 [Compound I-0387]	10 to 100
CCc1ccc(Cl)cc1Nc1nc(=O)c(OC)cn1Cc1ccc(F)cc1 [Compound I-0388]	10 to 100
CCc1ccc(Cl)cc1Nc1nc(=O)c(OC)cn1Cc1ccc(F)c(Cl)c1 [Compound I-0389]	< 10
COc1cn(Cc2ccccc2)c(Nc2cc(C)cc3[nH]ccc23)nc1=O [Compound I-0390]	10 to 100
COc1cn(Cc2ccccc2)c(Nc2cccc3c(=O)[nH]ccc23)nc1=O [Compound I-0392]	10 to 100

Structure (SMILES)	IC50 [nM]
COc1cn(Cc2ccccc2)c(Nc2cc(N3CCCC3=O)ccc2C)nc1=O [Compound I-0393]	10 to 100
COc1ccc(Nc2nc(=O)c(OC)cn2Cc2ccc(F)c(Cl)c2)c(C)c1C [Compound I-0394]	< 10
COc1cc(C)cc(Nc2nc(=O)c(OC)cn2Cc2cc(F)cc(Cl)c2)c1C [Compound I-0395]	< 10
COc1cn(Cc2ccc(F)c(Cl)c2)c(Nc2cc(C)cc3[nH]ccc23)nc1=O [Compound I-0396]	< 10
COc1cn(Cc2ccc(F)c(Cl)c2)c(Nc2cccc3c(=O)[nH]ccc23)nc1=O [Compound I-0398]	10 to 100
COc1cn(Cc2ccc(F)c(Cl)c2)c(Nc2cc(N3CCCC3=O)ccc2C)nc1=O [Compound I-0399]	< 10
CCc1cc(F)ccc1Nc1nc(=O)c(OC)cn1Cc1ccccc1 [Compound I-0400]	100 to 500
COc1cn(Cc2ccc(F)cc2)c(Nc2cccc(N(C)C)c2C)nc1=O [Compound I-0401]	10 to 100
COc1cn(Cc2ccc(F)c(Cl)c2)c(Nc2cccc(N(C)C)c2C)nc1=O [Compound I-0402]	< 10
COc1cn(Cc2cc(F)cc(Cl)c2)c(Nc2cccc(C)c2C)nc1=O [Compound I-0403]	10 to 100
COc1cc(C)cc(Nc2nc(=O)c(OC)cn2Cc2ccc(F)c(F)c2)c1C [Compound I-0404]	< 10
COc1cc(C)c(Nc2nc(=O)c(Cl)cn2Cc2ccc(F)cc2)cc1OC [Compound I-0406]	< 10
COc1ccc(C)c(Nc2nc(=O)c(OC)cn2Cc2cc(F)cc(F)c2)c1 [Compound I-0408]	10 to 100
COc1ccc(C)c(Nc2nc(=O)c(OC)cn2Cc2cc(F)cc(Cl)c2)c1 [Compound I-0409]	10 to 100
COc1c(C)ccc(Nc2nc(=O)c(OC)cn2Cc2ccccc2)c1C [Compound I-0410]	< 10
COc1cn(Cc2ccccc2)c(Nc2cc(N3CCN(C(=O)OC(C)(C)C)CC3)ccc2C)nc1=O [Compound I-0411]	100 to 500
COc1cn(Cc2ccc(F)c(Cl)c2)c(Nc2cc(N3CCN(C(=O)OC(C)(C)C)CC3)ccc2C)nc1=O [Compound I-0412]	100 to 500
COc1cn(Cc2ccccc2)c(Nc2cc(S(=O)(=O)Nc3ccccc3)c(F)cc2C)nc1=O [Compound I-0415]	500 to 1000
COc1cn(Cc2ccccc2)c(Nc2cc(-c3nc4ncccc4o3)ccc2C)nc1=O [Compound I-0416]	10 to 100
COc1cn(Cc2ccc(F)c(Cl)c2)c(Nc2cc(-c3nc4ncccc4o3)ccc2C)nc1=O [Compound I-0417]	100 to 500
COc1c(C)ccc(Nc2nc(=O)c(OC)cn2Cc2ccc(F)c(Cl)c2)c1C [Compound I-0419]	< 10
CCc1cc(F)ccc1Nc1nc(=O)c(OC)cn1Cc1ccc(F)c(Cl)c1 [Compound I-0420]	10 to 100
